Experimental data taken from patent US11890317B2, “Cell-protecting composition containing cyclo histidine-proline as active ingredient” (NovMetaPharma Co., Ltd., priority 2016, dated 2024).

Experiments:
[1] = system: liver cells (Chang liver cells); test: Inhibition of acetaminophen (APAP)-induced apoptosis of liver cells, cell viability by cell counting kit-8; assay type: cell-based
Experimental: Specifically, the acetaminophen was purchased from Sigma Chemical Co. (St. Louis, Mo., USA). The liver cells (Chang liver cells) were purchased from the American Type Culture Collection (ATCC; Manassas, VA, USA). The present inventors simultaneously treated and cultured the liver cell (Chang liver cell) with CHP 0.1, 1, 5 or 10 mg/mL respectively together with APAP 15 mM for 24 hours (FIG. 2A).
Further, the present inventors pre-treated and pre-cultured the liver cell (Chang liver cell) with CHP 0.1, 1, 5 or 10 mg/mL for 24 hours and subsequently post-treated and post-cultured the liver cell (Chang liver cell) with APAP 15 mM for 24 hours (FIG. 2B). The cell viability was analyzed using cell counting kit-8 (Dojindo Laboratories; Kumamoto, Japan). Subsequently, the cell viability was measured with a microplate reader (Molecular Devices, LLC; Sunnyvale, CA, USA).

SD mice = test: Liver function protection against cisplatin liver toxicity in mice, serum ALT and AST; assay type: in vivo; settings: CHP 1, 5 or 10 mg/L in drinking water for 1 week, then cisplatin 7.5 mg/kg i.p., serum after 24 hours
Experimental: To determine the protective effect of CHP on liver toxicity in mice, the present inventors purchased SD mice from Koatech, and the mice were raised under constant conditions (temperature: 23±3° C., relative humidity: 55±10%, daily cycle: 12 hours). Five mice were grouped into one group. We fed water and food to mice in the cage. We adapted the mice for experiments for one week prior to the experiment. After the adaption period, the mice were grouped into five groups.
1 group ingested water and was set as a negative control. […] These 3, 4 and 5 groups were set as liver damage prevention effect groups. The CHP ingestion using drinking water was performed once every two days.
To measure ALT and AST, we collected blood from the abdominal aorta from a mouse. We separated only serum from the blood using a centrifugal separator and analyzed the serum using an automatic analyzer (Hitachi 7180; Tokyo, Japan).
We conducted individual comparisons using the […] post-test thereon.

[2] = system: kidney cells (LLC-PK1 cells); test: Inhibition of gentamicin (GM)-induced apoptosis of kidney cells, cell viability by cell counting kit-8; assay type: cell-based
Experimental: Specifically, the cyclo histidine-proline (CHP) was produced by requesting only a target spec (99% purity) from a peptide manufacturer (Bachem; Bubendorf, Switzerland). The gentamycin was purchased from Sigma Chemical Co. (St. Louis, Mo., USA). The kidney cells (LLC-PK1 cells) were purchased from the American Type Culture Collection (ATCC; Manassas, VA, USA). The present inventors simultaneously treated and cultured the kidney cell (LLC-PK1 cell) with CHP 0.1, 1, 5 or 10 mg/mL respectively together with GM 5 mg/mL for 6 hours (FIG. 1A).
Further, the present inventors pre-treated and pre-cultured the kidney cell (LLC-PK1 cell) with CHP 0.1, 1, 5 or 10 mg/mL for 2 hours and subsequently post-treated and post-cultured the kidney cell (LLC-PK1 cell) with GM 5 mg/mL for 4 hours (FIG. 1B). The cell viability was analyzed using cell counting kit-8 (Dojindo Laboratories; Kumamoto, Japan). Subsequently, the cell viability was measured with a microplate reader (Molecular Devices, LLC; Sunnyvale, CA, USA).

ICR mice [3] = test: Kidney function protection against cisplatin kidney toxicity in mice, serum creatinine; assay type: in vivo; settings: CHP 1 mg/kg orally daily for 1 week, then cisplatin 10 mg/kg i.p., serum after 72 hours, FIG. 5
Text: (§1) Five mice were grouped into one group. We fed water and food to mice in the cage. We adapted the mice for experiments for one week prior to the experiment.

ICR mice [4] = test: Kidney function protection against cisplatin kidney toxicity in mice, serum BUN; assay type: in vivo; settings: CHP 1 mg/kg orally daily for 1 week, then cisplatin i.p., serum after 24 hours, FIG. 6
Text: as §1

Compound: CC(=O)Nc1ccc(O)cc1 [APAP, acetaminophen, reference compound]
- apoptosis of liver cells caused by the drug ([1]; APAP 15 mM): induced apoptosis of liver cells

Compound: O=C1N[C@@H](Cc2c[nH]cn2)C(=O)N2CCC[C@@H]12 [CHP, cyclo histidine-proline]
- cisplatin-induced ALT (SD mice; FIG. 3): significantly reduced
- cisplatin-induced AST (SD mice; FIG. 4): significantly reduced
- inhibition of acetaminophen (APAP)-induced apoptosis, liver cells co-treated with APAP and CHP ([1]; CHP 0.1, 1, 5 or 10 mg/mL together with APAP 15 mM for 24 hours, FIG. 2A): significantly inhibited
- inhibition of apoptosis of liver cells induced by acetaminophen (APAP) ([1]; CHP 0.1, 1, 5 or 10 mg/mL, APAP 15 mM, FIG. 2A and 2B): inhibited the apoptosis of liver cells induced by the acetaminophen (APAP) in a concentration-dependent manner
- inhibition of gentamicin (GM)-induced apoptosis, kidney cells pre-treated with CHP ([2]; CHP 0.1, 1, 5 or 10 mg/mL pre-treatment 2 hours, then GM 5 mg/mL 4 hours, FIG. 1B): greatly inhibited
- inhibition of apoptosis of kidney cells induced by gentamicin (GM) ([2]; CHP 0.1, 1, 5 or 10 mg/mL, GM 5 mg/mL, FIG. 1A and 1B): inhibited the apoptosis of kidney cells induced by the gentamicin (GM) in a concentration-dependent manner
- cisplatin-induced creatinine (ICR mice [3]): significantly reduced
- cisplatin-induced BUN (ICR mice [4]): significantly reduced

Compound: gentamicin [GM, reference compound]
- apoptosis of kidney cells caused by the drug ([2]; GM 5 mg/mL): induced apoptosis of kidney cells
